# Biological target: EGFR (Homo sapiens, UniProt P00533)
# Test: EGFR occupancy in N87 cells
# Assay type: cell-based
# Design: endogenous in cells; host or cells: N87
# Conditions: N87 cells; concentration at which 50% of EGFR is irreversible bound; read-out: N87 EGFR Occ
# Method: In order to assess free EGFR protein, a biotinylated probe was utilized as described for HER2 occupancy. N87 cells were plated, treated, and lysed as described for HER2 occupancy method. After treatment, the cells were washed three times with cold PBS, lysed at room temperature for 1 hr in modified occupancy lysis buffer (prepared as described in section titled “HER2 Occupancy Assay”). Lysates were stored at −70° C. until further analysis. For determination of % occupancy, lysates were loaded into duplicate plates of the phospho (Tyr 1068)/total EGFR whole cell lysate kit (Meso-Scale Discovery) and incubated overnight. Plates were washed and incubated with either EGFR-sulfoTag (1:50, Meso Scale Discovery) or Strep-Sulfo Tag (1:1000, Meso Scale Discovery), for detection of free and total EGFR, respectively. BSA control spots included in MSD plates were used to subtract non-specific signal. A standard curve of untreated cells in serial dilution was included in each plate to convert streptavidin and total EGFR MSD signals into free EGFR and total EGFR. Free EGFR was normalized to total EGFR for each sample. Data, reported as % […] control, was fitted using a sigmoidal curve analysis program (Graph Pad Prism version 6) with variable Hill slope to determine EC50 values. The results are provided in Table 4, under column titled “N87-EGFR Occ”. EGFR Occ is the concentration of test compound at which 50% of EGFR is irreversible bound.
# Chain of EGFR (P00533 25-1210): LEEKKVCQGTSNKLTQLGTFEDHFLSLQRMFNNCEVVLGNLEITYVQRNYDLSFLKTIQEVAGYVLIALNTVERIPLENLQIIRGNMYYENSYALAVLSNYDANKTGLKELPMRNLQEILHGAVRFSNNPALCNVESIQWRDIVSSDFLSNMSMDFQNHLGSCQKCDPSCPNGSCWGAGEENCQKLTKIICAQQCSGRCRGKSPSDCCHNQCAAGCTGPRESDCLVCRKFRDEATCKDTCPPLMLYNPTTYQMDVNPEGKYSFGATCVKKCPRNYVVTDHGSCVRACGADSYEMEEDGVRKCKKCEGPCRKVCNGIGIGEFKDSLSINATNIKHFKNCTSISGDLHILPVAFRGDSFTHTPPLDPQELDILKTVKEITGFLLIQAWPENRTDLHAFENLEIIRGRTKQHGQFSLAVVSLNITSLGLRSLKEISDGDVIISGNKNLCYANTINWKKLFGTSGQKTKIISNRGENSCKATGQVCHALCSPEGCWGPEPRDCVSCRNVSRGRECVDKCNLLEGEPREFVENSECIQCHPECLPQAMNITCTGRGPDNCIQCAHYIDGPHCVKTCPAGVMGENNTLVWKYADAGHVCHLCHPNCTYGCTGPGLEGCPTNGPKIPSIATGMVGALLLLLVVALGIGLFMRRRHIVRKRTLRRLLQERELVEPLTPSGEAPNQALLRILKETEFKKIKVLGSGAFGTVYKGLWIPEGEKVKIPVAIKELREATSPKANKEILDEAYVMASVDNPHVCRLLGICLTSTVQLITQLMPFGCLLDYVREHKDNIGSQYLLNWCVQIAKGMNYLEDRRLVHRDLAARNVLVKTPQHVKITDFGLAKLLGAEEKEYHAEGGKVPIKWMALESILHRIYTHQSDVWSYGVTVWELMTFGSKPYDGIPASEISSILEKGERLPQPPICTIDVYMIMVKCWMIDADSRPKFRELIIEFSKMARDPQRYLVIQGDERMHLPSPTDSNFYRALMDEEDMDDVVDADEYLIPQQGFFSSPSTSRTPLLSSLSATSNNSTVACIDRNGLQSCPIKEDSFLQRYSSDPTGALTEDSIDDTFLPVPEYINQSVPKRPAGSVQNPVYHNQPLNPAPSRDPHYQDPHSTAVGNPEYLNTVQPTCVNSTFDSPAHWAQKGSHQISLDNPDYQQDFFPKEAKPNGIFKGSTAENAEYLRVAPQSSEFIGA
smiles,measurement,value
"COc1ccc(Oc2ccc(Nc3ncnc4sc5c(c34)CCN(C(=O)/C=C/CN(C)C)C5)cc2C)cn1 [Compound 95, (E)-4-(Dimethylamino)-1-(4-((4-((6-methoxypyridin-3-yl)oxy)-3-methylphenyl)amino)-5,6-dihydropyrido[4′,3′:4,5]thieno[2,3-d]pyrimidin-7(8H)-yl)but-2-en-1-one]",EC50,100 to 350 nM

# Source: patent publication US20240391931A1 (Bristol-Myers Squibb Company, priority 2021, published 2024)
